# How the values were obtained:
# Assay in all cases: NanoBRET K192
# Type in all cases: cell-based
# Conditions in all cases: HEK293
# [1] = molecular target: T1, CDKL3 (Homo sapiens, UniProt Q8IVW4)
# T1 construct: purchased Promega (NanoBRET Target Engagement K192 Kinase Selectivity System)
# Procedure, shortened: (§1)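 HEK293 cells were transfected overnight with NanoLuc–kinase fusion vectors, then treated for 2 h at 37 °C with compound (added as 100 μM working solution) plus K10 tracer. BRET was read at 450/610 nm after substrate and extracellular inhibitor, and fractional occupancy was calculated against no-compound controls.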
# [2] = molecular target: T2, SIK1 (Homo sapiens, UniProt P57059)
# T2 construct: purchased Promega (NanoBRET Target Engagement K192 Kinase Selectivity System)
# Procedure, shortened: as §1
# [3] = molecular target: T3, AAK1 (Homo sapiens, UniProt Q2M2I8)
# T3 construct: purchased Promega (NanoBRET Target Engagement K192 Kinase Selectivity System)
# Procedure, shortened: as §1
# [4] = molecular target: T4, NTRK2 (Homo sapiens, UniProt Q16620)
# T4 construct: purchased Promega (NanoBRET Target Engagement K192 Kinase Selectivity System)
# Procedure, shortened: as §1
# [5] = molecular target: T5, PRKACA (Homo sapiens, UniProt P17612)
# T5 construct: purchased Promega (NanoBRET Target Engagement K192 Kinase Selectivity System)
# Procedure, shortened: as §1
# [6] = molecular target: T6, ULK1 (Homo sapiens, UniProt O75385)
# T6 construct: purchased Promega (NanoBRET Target Engagement K192 Kinase Selectivity System)
# Procedure, shortened: as §1
# [7] = molecular target: T7, NEK1 (Homo sapiens, UniProt Q96PY6)
# T7 construct: purchased Promega (NanoBRET Target Engagement K192 Kinase Selectivity System)
# Procedure, shortened: as §1
# [8] = molecular target: T8, MUSK (Homo sapiens, UniProt O15146)
# T8 construct: purchased Promega (NanoBRET Target Engagement K192 Kinase Selectivity System)
# Procedure, shortened: as §1
# [9] = molecular target: T9, MAPK8 (Homo sapiens, UniProt P45983)
# T9 construct: purchased Promega (NanoBRET Target Engagement K192 Kinase Selectivity System)
# Procedure, shortened: as §1
# [10] = molecular target: T10, PTK6 (Homo sapiens, UniProt Q13882)
# T10 construct: purchased Promega (NanoBRET Target Engagement K192 Kinase Selectivity System)
# Procedure, shortened: as §1
# [11] = molecular target: T11, JNK3 (Homo sapiens, UniProt P53779)
# T11 construct: purchased Promega (NanoBRET Target Engagement K192 Kinase Selectivity System)
# Procedure, shortened: as §1
# [12] = molecular target: T12, CDK17 + Y (Homo sapiens, UniProt Q00537)
# T12 construct: purchased Promega (NanoBRET Target Engagement K192 Kinase Selectivity System)
# Procedure, shortened: as §1
# [13] = molecular target: T13, INSR (Homo sapiens, UniProt P06213)
# T13 construct: purchased Promega (NanoBRET Target Engagement K192 Kinase Selectivity System)
# Procedure, shortened: as §1
# [14] = molecular target: T14, STK38 (Homo sapiens, UniProt Q15208)
# T14 construct: purchased Promega (NanoBRET Target Engagement K192 Kinase Selectivity System)
# Procedure, shortened: as §1
# [15] = molecular target: T15, MAP3K12 (Homo sapiens, UniProt Q12852)
# T15 construct: purchased Promega (NanoBRET Target Engagement K192 Kinase Selectivity System)
# Procedure, shortened: as §1
# [16] = molecular target: T16, MAPK4 (Homo sapiens, UniProt P31152)
# T16 construct: purchased Promega (NanoBRET Target Engagement K192 Kinase Selectivity System)
# Procedure, shortened: as §1
# [17] = molecular target: T17, MAPK11 (Homo sapiens, UniProt Q15759)
# T17 construct: purchased Promega (NanoBRET Target Engagement K192 Kinase Selectivity System)
# Procedure, shortened: as §1
# [18] = molecular target: T18, MAP3K2 (Homo sapiens, UniProt Q9Y2U5)
# T18 construct: purchased Promega (NanoBRET Target Engagement K192 Kinase Selectivity System)
# Procedure, shortened: as §1
# [19] = molecular target: T19, CDK7 + pMB (Homo sapiens, UniProt P50613)
# T19 construct: purchased Promega (NanoBRET Target Engagement K192 Kinase Selectivity System)
# Procedure, shortened: as §1
# [20] = molecular target: T20, SIK3 (Homo sapiens, UniProt Q9Y2K2)
# T20 construct: purchased Promega (NanoBRET Target Engagement K192 Kinase Selectivity System)
# Procedure, shortened: as §1
# [21] = molecular target: T21, MAP4K5 (Homo sapiens, UniProt Q9Y4K4)
# T21 construct: purchased Promega (NanoBRET Target Engagement K192 Kinase Selectivity System)
# Procedure, shortened: as §1
# [22] = molecular target: T22, CDK1 + B1 (Homo sapiens, UniProt P06493)
# T22 construct: purchased Promega (NanoBRET Target Engagement K192 Kinase Selectivity System)
# Procedure, shortened: as §1
# [23] = molecular target: T23, FGFR2 (Homo sapiens, UniProt P21802)
# T23 construct: host or cells: HEK293
# Procedure, shortened: as §1
# [24] = molecular target: T24, TNK2 (Homo sapiens, UniProt Q07912)
# T24 construct: purchased Promega (NanoBRET Target Engagement K192 Kinase Selectivity System)
# Procedure, shortened: as §1
# [25] = molecular target: T25, CSNK1D (Homo sapiens, UniProt P48730)
# T25 construct: purchased Promega (NanoBRET Target Engagement K192 Kinase Selectivity System)
# Procedure, shortened: as §1
# [26] = molecular target: T26, CDK9 + K (Homo sapiens, UniProt P50750)
# T26 construct: purchased Promega (NanoBRET Target Engagement K192 Kinase Selectivity System)
# Procedure, shortened: as §1
# [27] = molecular target: T27, LRRK2 (Homo sapiens, UniProt Q5S007)
# T27 construct: purchased Promega (NanoBRET Target Engagement K192 Kinase Selectivity System)
# Procedure, shortened: as §1
# [28] = molecular target: T28, MLTK (Homo sapiens, UniProt Q9NYL2)
# T28 construct: purchased Promega (NanoBRET Target Engagement K192 Kinase Selectivity System)
# Procedure, shortened: as §1
# T18 sequence (Q9Y2U5 whole entry): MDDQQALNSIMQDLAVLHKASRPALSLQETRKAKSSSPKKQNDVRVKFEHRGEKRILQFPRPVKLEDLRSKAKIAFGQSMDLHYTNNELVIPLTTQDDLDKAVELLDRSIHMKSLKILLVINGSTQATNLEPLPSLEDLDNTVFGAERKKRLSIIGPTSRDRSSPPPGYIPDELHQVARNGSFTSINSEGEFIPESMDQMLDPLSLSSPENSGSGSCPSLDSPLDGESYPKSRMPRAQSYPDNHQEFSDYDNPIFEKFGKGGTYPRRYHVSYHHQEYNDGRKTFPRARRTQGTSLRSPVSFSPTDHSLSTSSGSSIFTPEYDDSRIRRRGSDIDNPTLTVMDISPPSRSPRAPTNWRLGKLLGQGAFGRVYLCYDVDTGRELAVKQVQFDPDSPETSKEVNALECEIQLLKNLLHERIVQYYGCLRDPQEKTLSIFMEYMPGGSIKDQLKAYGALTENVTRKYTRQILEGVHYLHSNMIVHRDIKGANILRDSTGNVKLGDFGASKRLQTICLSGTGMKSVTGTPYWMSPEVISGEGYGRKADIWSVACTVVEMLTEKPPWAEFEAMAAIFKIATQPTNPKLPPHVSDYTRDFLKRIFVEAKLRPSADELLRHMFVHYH
# T16 sequence (P31152 whole entry): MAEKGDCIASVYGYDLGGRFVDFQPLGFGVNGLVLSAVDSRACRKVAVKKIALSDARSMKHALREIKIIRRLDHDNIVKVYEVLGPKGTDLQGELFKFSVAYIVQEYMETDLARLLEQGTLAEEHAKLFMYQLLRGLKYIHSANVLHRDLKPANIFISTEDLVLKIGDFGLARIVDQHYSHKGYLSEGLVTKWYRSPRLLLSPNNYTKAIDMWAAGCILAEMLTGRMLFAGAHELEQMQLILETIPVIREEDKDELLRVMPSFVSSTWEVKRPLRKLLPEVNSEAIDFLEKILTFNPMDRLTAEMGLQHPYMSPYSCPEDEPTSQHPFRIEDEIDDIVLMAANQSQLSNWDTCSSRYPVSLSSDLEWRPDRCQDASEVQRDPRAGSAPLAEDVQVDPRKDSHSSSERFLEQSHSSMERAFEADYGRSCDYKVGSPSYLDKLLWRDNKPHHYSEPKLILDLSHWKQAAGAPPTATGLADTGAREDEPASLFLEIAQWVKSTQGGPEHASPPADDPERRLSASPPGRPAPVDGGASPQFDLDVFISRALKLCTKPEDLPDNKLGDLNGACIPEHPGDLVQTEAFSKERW
# T7 sequence (Q96PY6 whole entry): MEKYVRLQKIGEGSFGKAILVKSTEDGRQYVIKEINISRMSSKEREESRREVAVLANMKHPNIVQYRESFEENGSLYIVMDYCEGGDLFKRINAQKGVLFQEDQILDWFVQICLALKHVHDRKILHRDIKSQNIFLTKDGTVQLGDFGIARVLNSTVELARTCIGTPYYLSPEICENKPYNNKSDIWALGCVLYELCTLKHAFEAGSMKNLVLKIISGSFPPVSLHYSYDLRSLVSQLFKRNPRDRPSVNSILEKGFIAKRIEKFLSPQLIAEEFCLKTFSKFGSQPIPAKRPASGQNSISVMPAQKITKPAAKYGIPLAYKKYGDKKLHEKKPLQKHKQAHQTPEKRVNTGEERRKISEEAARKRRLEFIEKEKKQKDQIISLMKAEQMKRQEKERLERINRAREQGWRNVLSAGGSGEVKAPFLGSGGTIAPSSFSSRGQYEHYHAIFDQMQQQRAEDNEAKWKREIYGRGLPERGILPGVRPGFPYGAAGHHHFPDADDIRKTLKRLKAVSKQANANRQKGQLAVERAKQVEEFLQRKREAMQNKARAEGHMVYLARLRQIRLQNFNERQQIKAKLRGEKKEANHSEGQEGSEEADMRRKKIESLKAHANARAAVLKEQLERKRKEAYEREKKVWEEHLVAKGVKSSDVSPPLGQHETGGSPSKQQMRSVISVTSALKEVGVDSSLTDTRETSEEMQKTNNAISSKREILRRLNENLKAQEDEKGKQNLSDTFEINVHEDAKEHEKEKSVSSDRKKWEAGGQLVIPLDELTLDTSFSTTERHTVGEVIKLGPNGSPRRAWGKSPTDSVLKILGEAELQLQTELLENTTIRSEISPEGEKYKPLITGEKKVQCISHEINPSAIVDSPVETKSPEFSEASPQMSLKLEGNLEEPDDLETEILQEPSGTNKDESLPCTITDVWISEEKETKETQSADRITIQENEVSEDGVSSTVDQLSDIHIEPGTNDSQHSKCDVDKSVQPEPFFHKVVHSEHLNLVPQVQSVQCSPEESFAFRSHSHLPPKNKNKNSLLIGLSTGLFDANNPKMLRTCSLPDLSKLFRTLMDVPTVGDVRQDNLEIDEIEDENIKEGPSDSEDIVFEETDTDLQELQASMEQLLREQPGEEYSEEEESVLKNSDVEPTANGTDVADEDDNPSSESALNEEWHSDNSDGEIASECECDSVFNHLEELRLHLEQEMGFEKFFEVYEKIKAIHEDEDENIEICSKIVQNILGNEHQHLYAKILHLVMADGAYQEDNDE
# T1 sequence (Q8IVW4 whole entry): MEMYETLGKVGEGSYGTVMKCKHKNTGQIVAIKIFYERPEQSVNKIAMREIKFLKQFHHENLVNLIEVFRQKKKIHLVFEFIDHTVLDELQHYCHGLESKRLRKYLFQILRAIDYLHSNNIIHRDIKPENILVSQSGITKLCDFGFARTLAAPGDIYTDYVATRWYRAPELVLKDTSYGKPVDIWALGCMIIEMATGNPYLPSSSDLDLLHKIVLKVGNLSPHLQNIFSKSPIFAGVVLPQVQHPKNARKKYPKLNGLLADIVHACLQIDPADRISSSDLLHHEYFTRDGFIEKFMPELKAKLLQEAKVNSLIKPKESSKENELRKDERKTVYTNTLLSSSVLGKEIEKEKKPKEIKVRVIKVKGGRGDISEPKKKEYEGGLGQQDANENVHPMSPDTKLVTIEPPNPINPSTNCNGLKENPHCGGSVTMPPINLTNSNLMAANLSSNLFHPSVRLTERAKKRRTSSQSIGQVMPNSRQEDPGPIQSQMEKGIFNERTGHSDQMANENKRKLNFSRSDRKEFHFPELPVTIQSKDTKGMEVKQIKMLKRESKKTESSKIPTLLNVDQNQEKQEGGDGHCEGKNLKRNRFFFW
# T15 sequence (Q12852 whole entry): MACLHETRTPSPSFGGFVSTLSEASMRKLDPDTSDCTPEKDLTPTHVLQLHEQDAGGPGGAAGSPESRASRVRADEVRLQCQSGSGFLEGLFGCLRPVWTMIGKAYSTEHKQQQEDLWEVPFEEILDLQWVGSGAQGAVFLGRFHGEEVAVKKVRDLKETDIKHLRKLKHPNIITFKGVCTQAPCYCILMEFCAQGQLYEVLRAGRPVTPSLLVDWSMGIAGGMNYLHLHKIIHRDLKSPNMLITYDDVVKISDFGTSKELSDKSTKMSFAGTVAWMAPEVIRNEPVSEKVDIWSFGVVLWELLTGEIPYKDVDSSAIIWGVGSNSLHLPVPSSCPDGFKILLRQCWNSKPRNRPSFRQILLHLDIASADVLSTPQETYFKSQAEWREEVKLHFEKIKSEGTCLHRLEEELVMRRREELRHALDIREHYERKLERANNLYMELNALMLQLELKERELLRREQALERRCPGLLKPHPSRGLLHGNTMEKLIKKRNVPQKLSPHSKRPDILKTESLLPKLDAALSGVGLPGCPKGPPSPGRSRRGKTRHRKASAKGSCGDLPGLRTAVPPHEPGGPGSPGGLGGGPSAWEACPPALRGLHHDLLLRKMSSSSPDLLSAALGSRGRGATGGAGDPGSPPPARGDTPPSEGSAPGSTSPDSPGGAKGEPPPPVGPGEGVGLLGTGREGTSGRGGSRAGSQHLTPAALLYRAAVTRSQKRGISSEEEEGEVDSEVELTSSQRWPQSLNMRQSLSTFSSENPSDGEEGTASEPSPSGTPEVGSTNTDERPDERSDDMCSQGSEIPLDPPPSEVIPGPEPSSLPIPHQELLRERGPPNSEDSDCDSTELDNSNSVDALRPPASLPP
# T8 sequence (O15146 24-869): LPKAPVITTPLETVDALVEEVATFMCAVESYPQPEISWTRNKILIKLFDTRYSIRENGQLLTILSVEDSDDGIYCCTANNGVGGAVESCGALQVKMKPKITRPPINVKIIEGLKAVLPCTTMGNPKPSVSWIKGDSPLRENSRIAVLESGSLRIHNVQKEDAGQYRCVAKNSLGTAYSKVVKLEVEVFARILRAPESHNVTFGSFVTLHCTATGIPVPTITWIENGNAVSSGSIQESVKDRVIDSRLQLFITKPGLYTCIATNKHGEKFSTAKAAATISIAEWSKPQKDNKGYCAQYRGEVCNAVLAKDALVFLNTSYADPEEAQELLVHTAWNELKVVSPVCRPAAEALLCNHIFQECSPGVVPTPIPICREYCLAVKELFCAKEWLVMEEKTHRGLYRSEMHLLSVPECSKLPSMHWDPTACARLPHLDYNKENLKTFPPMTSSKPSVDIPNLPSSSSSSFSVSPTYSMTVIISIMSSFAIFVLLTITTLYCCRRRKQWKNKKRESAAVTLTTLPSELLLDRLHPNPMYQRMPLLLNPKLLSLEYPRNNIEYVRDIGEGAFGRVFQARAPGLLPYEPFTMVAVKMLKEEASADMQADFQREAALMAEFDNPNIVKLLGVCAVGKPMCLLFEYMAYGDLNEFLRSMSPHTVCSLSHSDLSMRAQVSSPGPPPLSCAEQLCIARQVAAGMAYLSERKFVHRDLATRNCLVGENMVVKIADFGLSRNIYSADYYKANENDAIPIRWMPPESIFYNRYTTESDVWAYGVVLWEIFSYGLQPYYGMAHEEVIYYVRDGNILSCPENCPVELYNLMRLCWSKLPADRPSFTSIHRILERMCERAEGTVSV
smiles,measurement,setting,value
"CCC(=O)Nc1cc(Nc2cc(NC3CC3)n3ncc(C#N)c3n2)c(F)cc1N1CCC[C@H](NC)C1 [Compound 2, (S)-N-(5-((3-cyano-7-(cyclopropylamino)pyrazolo[1,5-a]pyrimidin-5-yl)amino)-4-fluoro-2-(3-(methylamino)piperidin-1-yl)phenyl)propionamide]",receptor occupancy at 10 µM,[1],19.4%
same,receptor occupancy at 10 µM,[2],6.4%
same,receptor occupancy at 10 µM,[3],17.8%
same,receptor occupancy at 10 µM,[4],-0.1%
same,receptor occupancy at 10 µM,[5],11.7%
same,receptor occupancy at 10 µM,[6],25.2%
same,receptor occupancy at 10 µM,[7],-1.9%
same,receptor occupancy at 10 µM,[8],-0.5%
same,receptor occupancy at 10 µM,[9],0.6%
same,receptor occupancy at 10 µM,[10],4.4%
same,receptor occupancy at 10 µM,[11],1%
same,receptor occupancy at 10 µM,[12],20.2%
same,receptor occupancy at 10 µM,[13],1.2%
same,receptor occupancy at 10 µM,[14],-0.8%
same,receptor occupancy at 10 µM,[15],-0.1%
same,receptor occupancy at 10 µM,[16],0.9%
same,receptor occupancy at 10 µM,[17],9.4%
same,receptor occupancy at 10 µM,[18],13.8%
same,receptor occupancy at 10 µM,[19],43.9%
same,receptor occupancy at 10 µM,[20],2.7%
same,receptor occupancy at 10 µM,[21],8.5%
same,receptor occupancy at 10 µM,[22],6.2%
same,receptor occupancy at 10 µM,[23],-2.9%
same,receptor occupancy at 10 µM,[24],12.5%
same,receptor occupancy at 10 µM,[25],9.4%
same,receptor occupancy at 10 µM,[26],19.8%
same,receptor occupancy at 10 µM,[27],-1.5%
same,receptor occupancy at 10 µM,[28],1.1%

# Source: paper PMC11397024, “Strategic Fluorination to Achieve a Potent, Selective, Metabolically Stable, and Orally Bioavailable Inhibitor of CSNK2” (Molecules, 2024)
